Patent publication US9737073B2, “Herbicidal weed control from combinations of fluroxypyr and ALS inhibitors” (Dow AgroSciences LLC, priority 2014, dated 2017)
Several values for one entry are separate records, joined by “and”; a condition that tells them apart may be missing. Identical values can stand only once.

Assays:
Format in all cases: in vivo
[1] = test system: Amaranthus rudis Sauer (common waterhemp, AMATA); assay: Postemergence herbicidal weed control, fluroxypyr-meptyl and cloransulam-methyl, field trials (Table 2)
Description: (§1) Seeds of the desired test plant species were planted in a peat-based potting soil, Metro-Mix 360® in plastic pots with a surface area of 128 square centimeters (cm^2). Metro-Mix 360® consists of formulated Canadian sphagnum peat moss, coarse perlite, bark ash, a starter nutrient charge (with gypsum), a slow-release nitrogen and dolomitic limestone. The plants were grown for 7-19 days in a greenhouse with an approximate 14-hour (h) photoperiod which was maintained at about 29° C. during the day and 26° C. during the night. Nutrients and water were added on a regular basis and supplemental lighting was provided with overhead metal halide 1000-Watt lamps as necessary. The plants were treated with postemergence foliar applications when they reached the third to fourth true leaf stage. All treatments were applied using a randomized complete block trial design, with 4 replications per treatment.
(§2) Treatments consisted of the compounds as listed in Tables 1 to 4, each compound applied alone and in combination. Commercially formulated products of fluroxypyr-meptyl (STARANE™, 333 grams acid equivalent per liter (g ae/L) EC), diclosulam (SPIDER® 84WG), cloransulam-methyl (FIRSTRATE™ 84WG), chlorimuron-ethyl (CLASSIC® 25WG) and thifensulfuron-methyl (HARMONY® 50SG). Formulated amounts of fluroxypyr-meptyl, diclosulam, cloransulam-methyl, chlorimuron-ethyl and thifensulfuron-methyl were placed in 60 milliliter (mL) glass vials and dissolved in a volume of 30 or 60 mL of a water solution containing Agri-dex crop oil concentrate in a 1% volume per volume (v/v) ratio. Compound requirements are based upon either a 30- or a 60-mL application volume at a rate of 200 liters per hectare (L/ha). Spray solutions of the mixtures were prepared by adding the stock solutions to the appropriate amount of dilution solution to form either a 30- or a 60-mL spray solution with active ingredients in single and two-way combinations. Formulated compounds were applied to the plant material with an overhead Generation III Research Sprayer manufactured by DeVries Manufacturing in Hollandale, Minn., USA. The track sprayer was equipped with an 8003E nozzle calibrated to deliver 200 L/ha at a spray height of 18 inches (43 centimeters (cm)) above average plant canopy.
(§3) The treated plants and untreated control plants were placed in a greenhouse as described above and watered by sub-irrigation to prevent wash-off of the test compounds.
(§4) Treatments were rated at 7 to 21 days after application (DAA) as compared to the untreated control plants. Visual weed control was scored on a scale of 0 to 100 percent where 0 corresponds to no injury and 100 corresponds to complete kill.
(§5) Field trials were conducted using standard herbicide small plot research methodology. Plots varied from 3×3.3 meter (m) to 4.5×10 m (width×length) with 4 replicates per treatment. The crops used in the field trials were grown using normal cultural practices for land preparation, fertilization, seeding and maintenance to ensure good growth of the crop and the weeds.
(§6) All treatments in the field trials were applied using either pressurized air or carbon dioxide (CO2) backpack or bicycle sprayers calibrated to apply 100-187 L/ha spray volume. Flat Fan spray nozzles were used in all trials, with water as the diluent applied at 275-300 kilopascals (kPa). Weed sizes at application ranged from 10 to 40 cm tall. Commercially available products of fluroxypyr-meptyl (STARANE™, 180 and 333 g ae/L EC), diclosulam (SPIDER® 84WG), and thifensulfuron-methyl (HARMONY® 75WG) were mixed in water at appropriately formulated product rates to achieve the desired rates based on a unit area of application (hectare) to achieve the desired rates as shown. No adjuvants were tank-mixed with any treatments applied in the field trials. Treatments were rated at 14-26 days after application as compared to the untreated control plants. […]

[2] = test system: Abutilon theophrasti (velvetleaf, ABUTH); assay: as above
Description: as §1, §2, §3, §4, §5, §6

[3] = test system: Amaranthus retroflexus L. (redroot pigweed, AMARE); assay: Postemergence herbicidal weed control, fluroxypyr-meptyl and thifensulfuron-methyl, field trials (Table 4); conditions: 21DAA1, 17.5 g ae/ha
Description: as §5
(§7) All treatments in the field trials were applied using either pressurized air or carbon dioxide (CO2) backpack or bicycle sprayers calibrated to apply 100-187 L/ha spray volume. Flat Fan spray nozzles were used in all trials, with water as the diluent applied at 275-300 kilopascals (kPa). Weed sizes at application ranged from 10 to 40 cm tall. Commercially available products of fluroxypyr-meptyl (STARANE™, 180 and 333 g ae/L EC), diclosulam (SPIDER® 84WG), and thifensulfuron-methyl (HARMONY® 75WG) were mixed in water at appropriately formulated product rates to achieve the desired rates based on a unit area of application (hectare) to achieve the desired rates as shown. No adjuvants were tank-mixed with any treatments applied in the field trials. Treatments were rated at 14-26 days after application as compared to the untreated control plants. Visual weed control was scored on a scale of 0 to 100 percent where 0 corresponds to no injury and 100 corresponds to complete kill.
(§8) The treated plots and control plots were rated blind at various intervals after application. Ratings were reported on a Percent (%) Visual Control basis, where 0 corresponds to no visual effect/weed control and 100 corresponds to complete kill of the target weeds.
(§9) Colby's equation was used to determine the herbicidal effects expected from the mixtures (Colby, S. R. Calculation of the synergistic and antagonistic response of herbicide combinations. Weeds 196715, 20-22). A t-test (alpha=0.05) between Colby predictions and observed combinations was used to test for significant differences indicating synergy or antagonism. The results presented in the Tables were significant according to the described criteria.
(§10) The following equation was used to calculate the expected activity of mixtures containing two active ingredients, A and B: Expected=A+B−(A×B/100) • A=observed efficacy of active ingredient A at the same concentration as used in the mixture; • B=observed efficacy of active ingredient B at the same concentration as used in the mixture.

[4] = test system: Chenopodium album (common lambsquarters, CHEAL); assay: as above; conditions: 21DAA1, 17.5 g ae/ha
Description: as §5, §7, §8, §9, §10

[5] = test system: Polygonum convolvulus L. (wild buckwheat, POLCO); assay: as above; conditions: 21DAA1, 17.5 g ae/ha
Description: as §5, §7, §8, §9, §10

[6] = test system: Abutilon theophrasti (velvetleaf, ABUTH); assay: as above; conditions: 14DAA1, 100 g ae/ha
Description: as §1, §2, §3, §4, §5
(§11) All treatments in the field trials were applied using either pressurized air or carbon dioxide (CO2) backpack or bicycle sprayers calibrated to apply 100-187 L/ha spray volume. Flat Fan spray nozzles were used in all trials, with water as the diluent applied at 275-300 kilopascals (kPa). Weed sizes at application ranged from 10 to 40 cm tall. […]

[7] = test system: Amaranthus palmeri S. Wats. (Palmer amaranth, AMAPA); assay: as above; conditions: 7DAA1, 50 g ae/ha
Description: as §1, §2, §3, §4, §5, §11

[8] = test system: Commelina benghalensis (tropical spiderwort, COMBE); assay: Postemergence herbicidal weed control, fluroxypyr-meptyl and diclosulam, greenhouse trials (Table 1)
Description: as §5, §7, §8, §9, §10

[9] = test system: Abutilon theophrasti (velvetleaf, ABUTH); assay: as above
Description: as §1, §2, §3, §4, §9, §10

## CCCCCCC(C)OC(=O)COc1nc(F)c(Cl)c(N)c1Cl (centres unmarked) [Fluroxypyr-meptyl, fluroxypyr-methylheptyl ester]
[1]; 8DAA1, 25 g ae/ha
  Fluroxypyr-meptyl Mean % weed control: 42.5%
[1]; 14DAA1, 25 g ae/ha
  Fluroxypyr-meptyl Mean % weed control: 21.3%
[1]; 21DAA1, 25 g ae/ha
  Fluroxypyr-meptyl Mean % weed control: 22.5%
[2]; 14DAA1, 25 g ae/ha
  Fluroxypyr-meptyl Mean % weed control: 68.3% and 70.0%
[2]; 21DAA1, 25 g ae/ha
  Fluroxypyr-meptyl Mean % weed control: 71.7% and 72.5%
[3]
  Fluroxypyr-meptyl Mean % weed control: 3.8%
[4]
  Fluroxypyr-meptyl Mean % weed control: 3.8%
[5]
  Fluroxypyr-meptyl Mean % weed control: 2.5%
[6]
  Fluroxypyr-meptyl Mean % weed control: 80.8%
[7]
  Fluroxypyr-meptyl Mean % weed control: 48.8%
[8]; 14DAA1, 200 g ae/ha
  Fluroxypyr-meptyl Mean % weed control: 27.5%
[8]; 26DAA1, 200 g ae/ha
  Fluroxypyr-meptyl Mean % weed control: 25.0%
[9]; 14DAA1, 25 g ae/ha
  Fluroxypyr-meptyl Mean % weed control: 70.0%
[9]; 21DAA1, 25 g ae/ha
  Fluroxypyr-meptyl Mean % weed control: 72.5%
